Results from US20130096054A1, “LATENT HUMAN IMMUNODEFICIENCY VIRUS REACTIVIATION” (priority 2010, published 2013).
Like-named read-outs stand apart in the source and are kept apart here. Where a SMILES comes first, the peptide text is derived from it. The star is where a group is joined. Cbz = O=C(OCc1ccccc1)*

Legend:
[1] = test system: chronically actively infected T cell lines JNLG#35 and JNLG#44; assay: Active HIV-1 transcription in chronically actively infected GFP-reporter T cells (GFP MCF); assay type: cell-based; details: 48 hours after addition
Description: Changes in HIV-1 transcription levels were determined after 48 hours by measuring GFP mean channel fluorescence intensity (GFP MCF). GFP MCF was plotted over the drug concentration for dactinomycin (FIG. 12A), the DNA intercalators daunorubicin (DM) (FIG. 12B) and rebeccamycin (RM) (FIG. 12C), as well as the transcription inhibitors ICRF-193 (FIG. 12D), DRB (FIG. 12E) and α-amanitin (FIG. 12F). The size of symbols indicates the respective cell viability in the sample (size range adjusted to 5-95%).
For this purpose, each of the compounds was titrated over a relevant range of concentrations on two chronically actively infected T cell lines (JNLG#35 and JNLG#44). These clonal cell lines are infected with a GFP-reporter virus. Forty eight hours after addition of the compounds, the effect of each compound on HIV-1 transcription was determined by flow cytometric analysis quantifying GFP mean channel fluorescence intensity (MCF).

[2] = test system: latently HIV-1 infected CA5 T cells; details: for priming effect on HIV-1 reactivation by sub-optimal dose of HRF: pretreatment with increasing concentrations, then sub-optimal HRF
Description: CA5 T cells were pretreated with increasing concentrations of dactinomycin (DM) (FIG. 11A), the DNA intercalator daunorubicin (DR) (FIG. 11B), or the transcription inhibitors DRB (FIG. 11 C) and α-amanitin (FIG. 11D) (concentrations indicated). The cells were then left unstimulated (white circles) or activated with a sub-optimal concentration of HRF (black circles). Reactivation levels were determined as the percentage of GFP-positive cells 24 hours after stimulation. Viability of the cells correlates with the size of the symbol (size range adjusted to 5-95%).
Infection levels in the cell cultures were monitored by flow cytometric analysis of EGFP expression. Flow cytometric analysis was performed on a GUAVA EasyCyte (Millipore; Billerica, Mass.), or a LSRII (Becton & Dickinson; Franklin Lakes, N.J.).
Bacteria from various sources were isolated on TSA II agar plates containing 5% sheep blood. Bacterial isolates were then grown in RPMI 1640 medium supplemented with 10% FBS. After two days of incubation at 37° C. bacteria were pelleted and resuspended in RPMI medium to an optical density (OD600) of 8, aliquoted and frozen at −80° C. Unless otherwise indicated, Massilia timonae was grown in RPMI 1640 medium supplemented with 10% FBS. Typically, medium was inoculated with Massilia timonae from frozen stocks to an OD600 of 0.01. After 48 hours at 37° C., the culture was centrifuged at 3200 g to separate bacteria from the culture medium. Bacteria were resuspended in fresh medium to an OD600 of 8 and frozen to be used as references and stock cultures. The supernatant was then centrifuged at 10,000 g for 20 minutes and sterilized by passage through an 0.2 μm PVDF filter with low protein binding ability. HRF activity was determined by its ability to reactivate latent HIV-1 infection in CA5 cells. Only supernatants of which 6 μl reactivated infection in at least 60% of CA5 cells were used to study HRF properties.
Infection levels in the cell cultures were monitored by flow cytometric (FCM) analysis of GFP expression. FCM analysis was performed on a GUAVA EasyCyte (GUAVA Technologies, Inc.; Millipore; Billerica, Mass.) and a BD FACSCalibur or a LSR11 (Becton & Dickinson; Franklin Lakes, N.J.). Cell sorting experiments were performed using a FACSAria™ Flow Cytometer (Becton&Dickinson). Data analysis was performed using either CellQuest (Becton&Dickinson) or GUAVA Express (GUAVA Technologies, Inc.).
To identify the optimal concentration of dactinomycin, CA5 T cells were pretreated with increasing concentrations of dactinomycin (0.0001 and 1 μg/ml), and then left untreated or stimulated with a sub-optimal concentration of HRF or TNF-α. […] Twenty four hours after activator addition, levels of HIV-1 reactivation were determined as the percentage of GFP-positive cells using flow cytometric analysis, which allowed for the simultaneous determination of cell viability.

## CO[C@H]1[C@H](O)[C@@H](O)[C@H](n2c3c(Cl)cccc3c3c4c(c5c6cccc(Cl)c6[nH]c5c32)C(=O)NC4=O)O[C@@H]1CO [rebeccamycin]
[1]
  effect on active HIV-1 infection / transcription (GFP MCF): boosted active HIV-1 transcription
[2]
  priming effect on HIV-1 reactivation by sub-optimal dose of HRF: not reproduced

## CC(C)C[C@@H](C=O)NC(=O)[C@H](CC(C)C)NC(=O)[C@H](CC(C)C)NC(=O)OCc1ccccc1 [MG132] (Cbz-Leu-Leu-Leu-aldehyde)
[2]
  priming effect on HIV-1 reactivation by sub-optimal dose of HRF: did not exhibit any priming effect

## CC[C@@]1(O)C(=O)OCc2c1cc1n(c2=O)Cc2cc3ccccc3nc2-1 [camptothecin]
[2]
  priming effect on HIV-1 reactivation by sub-optimal dose of HRF: None of the inhibitors exerted a priming effect

## OC[C@H]1O[C@@H](n2cnc3cc(Cl)c(Cl)cc32)[C@H](O)[C@@H]1O [DRB, 5,6 dichloro-beta-D-ribofuranosylbenzimidazole]
[2]
  cytotoxicity at higher concentrations: high levels of cytotoxicity
  effect of higher concentrations on HIV-1 reactivation triggered by HRF or TNF-α: inhibit HIV-1 reactivation

## CC(=O)NCCCCCCNC(C)=O [HMBA, Hexamethylene bisacetamide]
[2]; HMBA alone, compared to TNF-α, PMA or HRF
  reactivation levels: < 40%
[2]; HMBA at 3 mM
  cells with reactivated HIV-1: 15%
[2]; HMBA at 9 mM
  cells with reactivated HIV-1: 35%
  compound toxicity: onset of compound toxicity
[2]; combination of HMBA and TNF-α
  reactivation: 81%
[2]; optimal dose of HMBA alone
  reactivation: 27%
[2]; sub-toxic concentrations
  priming of latent HIV-1 infection for reactivation by sub-optimal TNF-α: relatively potent at priming latent HIV-1 infection for full reactivation
[2]; titration on CA5 T cells
  optimal concentration as HIV-1 priming agent, prior to onset of drug mediated toxicities: 3 to 10 mM

## CC[C@H](C)[C@@H]1NC(=O)CNC(=O)[C@@H]2Cc3c([nH]c4cc(O)ccc34)[S+]([O-])C[C@@H](NC(=O)CNC1=O)C(=O)N[C@@H](CC(N)=O)C(=O)N1C[C@H](O)C[C@H]1C(=O)N[C@@H]([C@@H](C)[C@@H](O)CO)C(=O)N2 (stereo in doubt) [α-amanitin]
[2]
  cytotoxicity at higher concentrations: high levels of cytotoxicity
  effect of higher concentrations on HIV-1 reactivation triggered by HRF or TNF-α: inhibit HIV-1 reactivation
  priming effect on HIV-1 reactivation by sub-optimal dose of HRF: None of the inhibitors exerted a priming effect
[2]; listed as α-aminitin
  priming effect on HIV-1 reactivation by sub-optimal dose of HRF: did not exhibit any priming effect

## O=C1[O][Pt]2([NH][C@@H]3CCCC[C@H]3[NH]2)[O]C1=O [oxaliplatin]
[2]
  priming effect on HIV-1 reactivation by sub-optimal dose of HRF: not reproduced

## COc1cccc2c1C(=O)c1c(O)c3c(c(O)c1C2=O)C[C@@](O)(C(C)=O)C[C@@H]3O[C@H]1C[C@H](N)[C@H](O)[C@H](C)O1 [daunorubicin]
[1]
  effect on active HIV-1 infection / transcription (GFP MCF): boosted active HIV-1 transcription

## CC[C@@]1(O)C[C@H](O[C@H]2C[C@H](N(C)C)[C@H](O[C@H]3C[C@H](O)[C@H](O[C@H]4CCC(=O)[C@H](C)O4)[C@H](C)O3)[C@H](C)O2)c2c(cc3c(c2O)C(=O)c2c(O)cccc2C3=O)[C@H]1C(=O)OC [aclacinomycin]
[2]
  priming effect on HIV-1 reactivation by sub-optimal dose of HRF: strong priming effect
